Data reported in ChEMBL document CHEMBL5154689, “Discovery of novel β-carboline derivatives as selective AChE inhibitors with GSK-3β inhibitory property for the treatment of Alzheimer's disease” (Eur J Med Chem, 2022).
The source made the active and inactive calls. The calls are words filed in the database; no cut-off is given here.

Key:
[1] = target: Acetylcholinesterase (Electrophorus electricus, UniProt O42275); assay: Inhibition of electric eel AChE using acetylthiocholine iodide as substrate preincubated with enzyme for 20 mins followed by substrate addition and measured after 20 mins by Ellman's method
[2] = target: T1, Glycogen synthase kinase-3 beta (Homo sapiens, UniProt P49841); assay: Inhibition of GSK3-beta (unknown origin) at 10 uM incubated for 60 mins by ATP-Glo luminescent assay
Target sequence in this assay (P49841 whole entry, looked up): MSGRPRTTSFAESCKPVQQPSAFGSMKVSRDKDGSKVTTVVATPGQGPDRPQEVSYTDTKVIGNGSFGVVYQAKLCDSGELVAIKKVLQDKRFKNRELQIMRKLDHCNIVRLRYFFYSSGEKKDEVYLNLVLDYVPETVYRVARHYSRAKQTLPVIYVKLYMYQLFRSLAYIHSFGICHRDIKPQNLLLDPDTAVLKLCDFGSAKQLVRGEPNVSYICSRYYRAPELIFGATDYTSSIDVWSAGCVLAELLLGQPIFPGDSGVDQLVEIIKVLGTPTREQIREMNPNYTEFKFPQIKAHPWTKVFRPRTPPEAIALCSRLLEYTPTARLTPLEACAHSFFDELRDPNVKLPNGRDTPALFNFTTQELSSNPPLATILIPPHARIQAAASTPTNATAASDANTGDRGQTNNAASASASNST

[3] = target: Cholinesterase (Equus caballus) (UniProt P81908); assay: Inhibition of equine serum BChE at 50 uM using butyrylthiocholine iodide as substrate preincubated with enzyme for 20 mins followed by substrate addition and measured after 20 mins by Ellman's method; assay type: cell-free; conditions: time 40.0 min
[4] = Selectivity index, ratio of IC50 for equine serum BChE to IC50 for electric eel AChE
[5] = target: Cholinesterase (Equus caballus, UniProt P81908); assay: Inhibition of equine serum BChE using butyrylthiocholine iodide as substrate preincubated with enzyme for 20 mins followed by substrate addition and measured after 20 mins by Ellman's method; assay type: cell-free
[6] = target: T1, Glycogen synthase kinase-3 beta; assay: Inhibition of GSK3-beta (unknown origin) incubated for 60 mins by ATP-Glo luminescent assay
Target sequence in this assay (P49841 whole entry): as the sequence (P49841 whole entry, looked up) above

[7] = test system: L02; assay: Cytotoxicity against human HL7702 cells assessed as reduction in cell viability at 10 uM incubated for 48 hrs by MTT assay; assay type: toxicity, cell-based; conditions: l02, 48 h
[8] = test system: SH-SY5Y; assay: Cytotoxicity against human SH-SY5Y cells assessed as reduction in cell viability at 10 uM incubated for 48 hrs by MTT assay; assay type: toxicity, cell-based
[9] = test system: HepG2; assay: Cytotoxicity against human HepG2 cells assessed as reduction in cell viability at 1 to 20 uM incubated for 48 hrs by MTT assay; assay type: toxicity, cell-based; conditions: hepg2, 48 h, dose 1-20 µM
[10] = test system: HEK-293T; assay: Cytotoxicity against human HEK-293T cells assessed as reduction in cell viability at 1 to 20 uM incubated for 48 hrs by MTT assay; assay type: toxicity, cell-based; conditions: dose 1-20 µM
[11] = target: T1, Glycogen synthase kinase-3 beta; assay: Inhibition of GSK3-beta in human HEK293T cells harboring tau P301L mutant assessed as increase in GSK3-beta phosphorylation at Ser9 residue measured after 48 hrs by western blot analysis; assay type: cell-based; conditions: dose 2.5-10 µM, DDE = dose-dependent effect
Target sequence in this assay (P49841 whole entry, looked up): as above

[12] = test system: L02; assay: Cytotoxicity against human HL7702 cells assessed as reduction in cell viability at 1 to 20 uM incubated for 48 hrs by MTT assay; assay type: toxicity, cell-based; conditions: l02, 48 h, dose 1-20 µM
[13] = target: T1, Glycogen synthase kinase-3 beta; assay: Inhibition of GSK3-beta in human HEK293T cells harboring tau P301L mutant assessed as reduction of NFT production measured after 24 hrs by fluorescence staining based analysis; assay type: cell-based; conditions: dose 2.5-10 µM, DDE = dose-dependent effect
Target sequence in this assay (P49841 whole entry, looked up): as above

[14] = target: Dual specificity tyrosine-phosphorylation-regulated kinase 1A (Homo sapiens) (UniProt Q13627); assay: Inhibition of DYRK1A (unknown origin) at 0.5 to 1 uM; conditions: dose 0.5-1 µM
[15] = target: Dual specificity tyrosine-phosphorylation-regulated kinase 1B (Homo sapiens) (UniProt Q9Y463); assay: Inhibition of DYRK1B (unknown origin) at 0.5 to 1 uM; conditions: dose 0.5-1 µM
[16] = target: Glycogen synthase kinase-3 alpha (Homo sapiens) (UniProt P49840); assay: Inhibition of GSK3-alpha (unknown origin) at 0.5 to 1 uM; conditions: dose 0.5-1 µM
[17] = target: T1, Glycogen synthase kinase-3 beta; assay: Inhibition of GSK3-beta in human HEK293T cells harboring tau P301L mutant assessed as inhibition of tau hyperphosphorylation at Ser396 residue measured after 48 hrs by western blot analysis; assay type: cell-based; conditions: dose 2.5-10 µM, DDE = dose-dependent effect
Target sequence in this assay (P49841 whole entry, looked up): as above

[18] = target: Acetylcholinesterase (Electrophorus electricus) (UniProt O42275); assay: Potency index, ratio of harmine IC50 to test compound IC50 for electric eel AChE
[19] = test system: SH-SY5Y; assay: Cytotoxicity against human SH-SY5Y cells assessed as reduction in cell viability at 1 to 20 uM incubated for 48 hrs by MTT assay; assay type: toxicity, cell-based; conditions: dose 1-20 µM
[20] = Acute toxicity in C57BL/6 mouse assessed as effect on body weight at 1000 to 1500 mg/kg measured after 14 days; assay type: organism-based; conditions: in vivo, 336 h, dose 1000-1500 mg/kg, time 14 day

Chain of Acetylcholinesterase (O42275 whole entry): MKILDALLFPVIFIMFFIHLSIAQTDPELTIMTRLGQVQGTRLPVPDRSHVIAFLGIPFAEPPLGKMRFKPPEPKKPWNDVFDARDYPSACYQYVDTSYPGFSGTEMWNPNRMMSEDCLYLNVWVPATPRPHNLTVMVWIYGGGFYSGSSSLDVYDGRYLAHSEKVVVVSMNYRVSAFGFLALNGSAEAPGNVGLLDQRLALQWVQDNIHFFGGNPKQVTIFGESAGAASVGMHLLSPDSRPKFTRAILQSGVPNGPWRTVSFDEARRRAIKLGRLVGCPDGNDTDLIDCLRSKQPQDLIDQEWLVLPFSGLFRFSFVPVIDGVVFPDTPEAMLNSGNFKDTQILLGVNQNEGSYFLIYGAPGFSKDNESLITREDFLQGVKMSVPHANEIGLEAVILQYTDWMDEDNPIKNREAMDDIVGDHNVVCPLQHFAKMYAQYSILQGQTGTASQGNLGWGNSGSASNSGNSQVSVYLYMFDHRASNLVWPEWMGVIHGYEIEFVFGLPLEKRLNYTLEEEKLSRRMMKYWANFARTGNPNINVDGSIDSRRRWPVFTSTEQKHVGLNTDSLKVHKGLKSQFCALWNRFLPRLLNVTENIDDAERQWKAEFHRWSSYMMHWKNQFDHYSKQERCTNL
Chain of Cholinesterase (Equus caballus) (P81908 whole entry): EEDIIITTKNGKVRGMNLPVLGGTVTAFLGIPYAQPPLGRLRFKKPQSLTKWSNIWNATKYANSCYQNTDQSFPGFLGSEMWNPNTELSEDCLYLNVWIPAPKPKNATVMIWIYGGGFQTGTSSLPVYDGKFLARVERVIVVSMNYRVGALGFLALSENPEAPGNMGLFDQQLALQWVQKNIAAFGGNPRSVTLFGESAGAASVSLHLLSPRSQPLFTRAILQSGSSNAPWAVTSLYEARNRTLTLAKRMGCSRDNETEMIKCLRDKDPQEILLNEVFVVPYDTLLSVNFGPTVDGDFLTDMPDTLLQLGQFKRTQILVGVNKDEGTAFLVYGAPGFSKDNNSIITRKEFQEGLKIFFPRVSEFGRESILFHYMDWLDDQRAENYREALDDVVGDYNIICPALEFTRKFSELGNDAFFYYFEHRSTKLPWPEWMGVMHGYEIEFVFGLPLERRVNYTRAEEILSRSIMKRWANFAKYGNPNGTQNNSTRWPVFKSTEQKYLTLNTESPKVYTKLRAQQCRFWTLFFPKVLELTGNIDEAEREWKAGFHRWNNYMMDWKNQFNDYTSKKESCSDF
Chain of Cholinesterase (P81908 whole entry): as above
Chain of Dual specificity tyrosine-phosphorylation-regulated kinase 1B (Homo sapiens) (Q9Y463 whole entry, looked up): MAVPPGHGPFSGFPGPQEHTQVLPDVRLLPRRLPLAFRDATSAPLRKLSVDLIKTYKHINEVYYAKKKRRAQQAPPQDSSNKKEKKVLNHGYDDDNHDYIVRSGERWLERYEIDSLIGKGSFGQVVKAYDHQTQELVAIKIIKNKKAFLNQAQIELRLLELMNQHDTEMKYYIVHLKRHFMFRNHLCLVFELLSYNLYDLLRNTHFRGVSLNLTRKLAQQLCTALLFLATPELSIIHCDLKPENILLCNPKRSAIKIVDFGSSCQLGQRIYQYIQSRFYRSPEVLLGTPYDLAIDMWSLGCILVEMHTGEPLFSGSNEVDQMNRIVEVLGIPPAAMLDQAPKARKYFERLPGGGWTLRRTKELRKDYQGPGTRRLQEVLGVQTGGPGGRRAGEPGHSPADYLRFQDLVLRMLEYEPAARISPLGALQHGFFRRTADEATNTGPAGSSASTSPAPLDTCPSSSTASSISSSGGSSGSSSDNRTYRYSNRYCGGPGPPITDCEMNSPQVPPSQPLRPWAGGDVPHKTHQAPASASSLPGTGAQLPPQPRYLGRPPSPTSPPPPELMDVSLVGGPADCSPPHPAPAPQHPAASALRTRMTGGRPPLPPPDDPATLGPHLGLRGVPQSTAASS
Chain of Glycogen synthase kinase-3 alpha (Homo sapiens) (P49840 2-483 limits assumed): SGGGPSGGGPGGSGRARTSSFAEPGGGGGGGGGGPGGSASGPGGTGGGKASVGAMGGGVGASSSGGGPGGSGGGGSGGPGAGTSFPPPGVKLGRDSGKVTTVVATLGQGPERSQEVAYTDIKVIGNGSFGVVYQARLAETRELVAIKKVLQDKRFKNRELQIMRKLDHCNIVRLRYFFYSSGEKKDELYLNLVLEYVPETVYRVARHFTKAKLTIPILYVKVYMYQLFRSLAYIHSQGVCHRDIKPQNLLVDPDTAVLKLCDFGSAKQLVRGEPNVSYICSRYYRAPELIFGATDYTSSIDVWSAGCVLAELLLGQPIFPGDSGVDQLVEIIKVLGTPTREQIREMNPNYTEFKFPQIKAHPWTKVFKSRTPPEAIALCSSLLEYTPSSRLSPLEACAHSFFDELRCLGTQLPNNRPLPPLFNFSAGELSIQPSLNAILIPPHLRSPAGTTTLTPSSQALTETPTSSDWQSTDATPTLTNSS
Chain of Acetylcholinesterase (Electrophorus electricus) (O42275 24-633 limits assumed): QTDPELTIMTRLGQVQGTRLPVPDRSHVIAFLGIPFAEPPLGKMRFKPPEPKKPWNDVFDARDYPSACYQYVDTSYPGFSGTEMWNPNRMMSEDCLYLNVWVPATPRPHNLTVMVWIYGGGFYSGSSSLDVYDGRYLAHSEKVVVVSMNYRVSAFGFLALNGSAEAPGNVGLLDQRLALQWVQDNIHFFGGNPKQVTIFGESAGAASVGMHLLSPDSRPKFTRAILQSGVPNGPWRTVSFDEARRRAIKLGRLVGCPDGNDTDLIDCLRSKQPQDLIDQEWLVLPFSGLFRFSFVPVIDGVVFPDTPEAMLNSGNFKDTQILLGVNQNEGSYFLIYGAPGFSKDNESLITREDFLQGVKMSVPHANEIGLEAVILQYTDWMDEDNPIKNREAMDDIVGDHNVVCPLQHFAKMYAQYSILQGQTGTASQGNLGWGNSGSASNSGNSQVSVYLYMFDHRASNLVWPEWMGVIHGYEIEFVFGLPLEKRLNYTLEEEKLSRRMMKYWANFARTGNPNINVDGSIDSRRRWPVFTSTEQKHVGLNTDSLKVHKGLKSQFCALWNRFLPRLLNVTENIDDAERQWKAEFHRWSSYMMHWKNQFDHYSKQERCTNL

SMILES	IC50 [1] [µM]	inhibition [2] [%]	inhibition [3] [%]	Ratio IC50 [4]	IC50 [5] [µM]	other results
O=C(NC1CCN(Cc2c(Cl)cccc2Cl)CC1)c1ccc2c(c1)[nH]c1c(NC(=O)C3CC3)nccc12	2.01	21.9	< 10	> 24.9	> 50	
Cc1ccc(CN2CCC(NC(=O)c3ccc4c(c3)[nH]c3c(NC(=O)C5CC5)nccc34)CC2)cc1	8.56	10.5	23	> 5.84	> 50	
COC(=O)c1ccc2c(c1)[nH]c1c(NC(=O)C3CC3)nccc12	> 20				> 20	IC50 [6]: 0.07 µM
O=C(NC1CCN(Cc2cccc(F)c2)CC1)c1ccc2c(c1)[nH]c1c(NC(=O)C3CC3)nccc12	2.22	79.8	30.8	> 22.5	> 50	
COc1ccc2c(c1)[nH]c1c(C)nccc12 [HARMINE]	10.1		74.1		13.6	
O=C(NCCC1CCN(Cc2cccc(F)c2)CC1)c1ccc2c(c1)[nH]c1c(NC(=O)C3CC3)nccc12	0.96	47.8	65.4	> 50.1	19.9	
O=C(NC1CCN(Cc2ccccc2)CC1)c1ccc2c(c1)[nH]c1c(NC(=O)C3CC3)nccc12	2.33	63.3	52.6	16.6	38.8	
O=C(NCC1CCN(Cc2ccc(F)cc2)CC1)c1ccc2c(c1)[nH]c1c(NC(=O)C3CC3)nccc12	3.08	40.9	39.7	> 16.2	> 50	
O=C(NCCC1CCN(Cc2ccc(F)cc2)CC1)c1ccc2c(c1)[nH]c1c(NC(=O)C3CC3)nccc12	1.21	14.9	68.7	16.8	20.3	
O=C(NC1CCN(Cc2cccc([N+](=O)[O-])c2)CC1)c1ccc2c(c1)[nH]c1c(NC(=O)C3CC3)nccc12	2.77	78	20.1	> 18.1	> 50	
O=C(NC1CCN(Cc2ccc(F)cc2)CC1)c1ccc2c(c1)[nH]c1c(NC(=O)C3CC3)nccc12	2.14	74.6	36.9	> 23.4	> 50	
O=C(NCCC1CCN(Cc2ccc(Cl)cc2)CC1)c1ccc2c(c1)[nH]c1c(NC(=O)C3CC3)nccc12	14.9	84.3	< 10	> 3.35	> 50	Activity [7]: Toxic; Activity [8]: Toxic
O=C(NCCC1CCN(Cc2cccc([N+](=O)[O-])c2)CC1)c1ccc2c(c1)[nH]c1c(NC(=O)C3CC3)nccc12	1.57	66.2	21.5	> 31.9	> 50	
O=C(NCC1CCN(Cc2ccc(C(F)(F)F)cc2)CC1)c1ccc2c(c1)[nH]c1c(NC(=O)C3CC3)nccc12	10.4	59.5	< 10	> 4.81	> 50	
O=C(NCC1CCN(Cc2c(Cl)cccc2Cl)CC1)c1ccc2c(c1)[nH]c1c(NC(=O)C3CC3)nccc12	0.34	11.3	< 10	> 147	> 50	
O=C(NCCC1CCN(Cc2c(Cl)cccc2Cl)CC1)c1ccc2c(c1)[nH]c1c(NC(=O)C3CC3)nccc12	0.89	52.1	< 10	> 56.2	> 50	

SMILES	IC50 [1] [µM]	inhibition [2] [%]	inhibition [3] [%]	Ratio IC50 [4]	IC50 [5] [µM]	other results
O=C(NCC1CCN(Cc2ccccc2)CC1)c1ccc2c(c1)[nH]c1c(NC(=O)C3CC3)nccc12	1.73	20.8	37.2	48.1	> 50	
O=C(NCC1CCN(Cc2cccc(F)c2)CC1)c1ccc2c(c1)[nH]c1c(NC(=O)C3CC3)nccc12	2.24	11.1	32.6	> 22.3	> 50	
O=C(NC1CCN(Cc2cc(F)cc(F)c2)CC1)c1ccc2c(c1)[nH]c1c(NC(=O)C3CC3)nccc12	33.5	41.9	< 10	> 1.49	> 50	
Cc1ccc(CN2CCC(CCNC(=O)c3ccc4c(c3)[nH]c3c(NC(=O)C5CC5)nccc34)CC2)cc1	2.74	62.7	44.3	> 18.2	> 50	
O=C(NCC1CCN(Cc2ccc(Cl)cc2)CC1)c1ccc2c(c1)[nH]c1c(NC(=O)C3CC3)nccc12	19.6	11.7	< 10	> 2.55	> 50	
O=C(NC1CCN(Cc2ccccc2F)CC1)c1ccc2c(c1)[nH]c1c(NC(=O)C3CC3)nccc12	2.64	84.6	30.8	> 18.9	> 50	
O=C(NCCC1CCN(Cc2cc(F)cc(F)c2)CC1)c1ccc2c(c1)[nH]c1c(NC(=O)C3CC3)nccc12	5.8	2.71	< 10	> 8.62	> 50	
O=C(NCCC1CCN(Cc2ccc(C(F)(F)F)cc2)CC1)c1ccc2c(c1)[nH]c1c(NC(=O)C3CC3)nccc12	31.2	73.8	< 10	> 1.6	> 50	Activity [7]: Toxic; Activity [8]: Toxic
O=C(NC1CCN(Cc2ccc(C(F)(F)F)cc2)CC1)c1ccc2c(c1)[nH]c1c(NC(=O)C3CC3)nccc12	13.9	71.9	< 10	> 3.6	> 50	
Cc1ccc(CN2CCC(CNC(=O)c3ccc4c(c3)[nH]c3c(NC(=O)C5CC5)nccc34)CC2)cc1	3.02	46.4	15.3	> 16.6	> 50	
O=C(NCC1CCN(Cc2cccc([N+](=O)[O-])c2)CC1)c1ccc2c(c1)[nH]c1c(NC(=O)C3CC3)nccc12	2.05	52.1	< 10	> 24.4	> 50	
O=C(NCC1CCN(Cc2ccccc2F)CC1)c1ccc2c(c1)[nH]c1c(NC(=O)C3CC3)nccc12	0.84	42.1	55.6	40.7	34.2	
O=C(NCCC1CCN(Cc2ccccc2F)CC1)c1ccc2c(c1)[nH]c1c(NC(=O)C3CC3)nccc12	0.27	60.8	63	77.1	20.8	Activity [9]: Non-Toxic; Activity [10]: Non-Toxic; inhibition [11]: Dde; IC50 [6]: 6.78 µM; Activity [12]: Non-Toxic; inhibition [13]: Dde; inhibition [14]: Active; inhibition [15]: Active; inhibition [16]: Active; inhibition [17]: Dde; Ratio IC50 [18]: 37; Activity [19]: Non-Toxic; Activity [20]: Non-Toxic
O=C(NCCC1CCN(Cc2ccccc2)CC1)c1ccc2c(c1)[nH]c1c(NC(=O)C3CC3)nccc12	0.78	-2.01	68.3	30.2	23.6	
O=C(NCC1CCN(Cc2cc(F)cc(F)c2)CC1)c1ccc2c(c1)[nH]c1c(NC(=O)C3CC3)nccc12	5.04		10.4	> 9.92	> 50	
O=C(NC1CCN(Cc2ccc(Cl)cc2)CC1)c1ccc2c(c1)[nH]c1c(NC(=O)C3CC3)nccc12	18.9	57.9	< 10	> 2.64	> 50	
